Reference: paper PMC8151276, “An Integrated Approach toward NanoBRET Tracers for Analysis of GPCR Ligand Engagement” (Molecules, 2021)

Assays:
ADRA1A = target: T1, ADRA1A (Homo sapiens, UniProt P35348); assay: NanoBRET screen HiBiT-ADRA1A in HEK293; type: binding; conditions: ADRA1A
T1 construct: purchased Promega (in-house HiBiT-GPCR construct library, NanoBRET)
T1 sequence (P35348 1-466): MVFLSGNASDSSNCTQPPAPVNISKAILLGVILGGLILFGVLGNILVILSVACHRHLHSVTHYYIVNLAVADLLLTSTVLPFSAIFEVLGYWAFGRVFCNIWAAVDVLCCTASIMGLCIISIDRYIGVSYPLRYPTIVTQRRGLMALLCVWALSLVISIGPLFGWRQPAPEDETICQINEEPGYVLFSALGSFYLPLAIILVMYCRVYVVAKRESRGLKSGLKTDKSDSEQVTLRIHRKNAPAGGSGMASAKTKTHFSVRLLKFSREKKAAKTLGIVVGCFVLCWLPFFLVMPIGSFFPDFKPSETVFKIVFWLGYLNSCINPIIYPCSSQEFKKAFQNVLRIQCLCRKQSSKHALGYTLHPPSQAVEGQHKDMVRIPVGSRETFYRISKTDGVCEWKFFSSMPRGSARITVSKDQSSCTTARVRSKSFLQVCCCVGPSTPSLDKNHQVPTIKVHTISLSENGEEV
Procedure: (§1) Each tracer candidate was screened across the entire library of HiBiT-GPCR constructs using NanoBRET as the detection modality. As depicted in Figure 4A, the specificity of interactions was evaluated through decrease in BRET due to competitive displacement of a bound tracer by excess parental compound. Each tracer was analyzed for binding to each HiBiT-GPCR fusion in the absence and in the presence of competing parental compound. Briefly, HEK293 cells were transfected with HiBiT-GPCR constructs diluted into promoterless DNA to reduce expression and maximize translocation to the cell surface. Each tracer candidate was then screened at concentrations of 1 μM and 0.1 μM across cells expressing these fusions. Cells were treated for 1.5 h with tracer either alone or in the presence of 20 μM competing parental compound (i.e., control). BRET was measured upon addition of purified LgBiT and subsequent complementation with HiBiT genetically fused to a GPCR. The specificity of interactions was assessed through a decrease in BRET signal due to competitive displacement of the bound tracer. To further gauge the robustness of these interactions, the fold response over the control (i.e., BRETtracer/BRETcontrol) was calculated. We chose a 1.5-fold response, which translates to ≥7-fold signal over noise as the minimal threshold required to score an interaction as positive.
(§2) HiBiT-GPCR DNA constructs were diluted in 10 mM Tris pH 8 to a final concentration of 0.01 μg/μL, arrayed in 96-well plates and stored at −20 °C. For transfection, HEK293 cells were suspended in Opti-MEM (without phenol red) supplemented with 2% fetal bovine serum (Seradigm) and 100 units/mL penicillin–streptomycin (Gibco) at a final concentration of 220,000 cells/mL and dispensed into white 96-well plates at 90 μL/well. Subsequent transfections and screens were carried using an Agilent Bravo Automated Liquid Handling Platform. First, the 96-well HiBiT DNA arrays were diluted 25-fold in Opti-MEM (without serum or phenol red) to a final concentration of 0.0004 μg/μL and 20 μL of the diluted DNAs were transferred into new 96-well plates. Next, promoterless carrier DNA (1 μg/μL) was diluted 25-fold (0.04 μg/μL) and then dispensed into the diluted arrays at 20 μL/well. Following brief mixing, Viafect transfection reagent (Promega) diluted 16-fold into Opti-MEM was dispensed into the plates at 40 μL/well. After mixing by pipetting, plates were incubated for 10 min on the pipetting station deck. The DNA-transfection reagent complexes were then added to plates containing cells. To facilitate the screen, 10 μL of DNA-transfection reagent complexes were added in duplicates to the top 4 and bottom 4 rows, resulting in two identical 48-well arrays per plate. Plates with transfected cells were incubated for 18–20 h at 37 °C/5% CO2. A screen of each tracer across the entire library using two different concentrations requires duplicate plates of transfected cells. Depending on the number of tracers being screened, transfections can be scaled up using the same ratios. The next day, for each tracer, four 20× screening solutions in tracer dilution buffer (Promega) were prepared: two duplicates at final concentration of 20 μM and two duplicates at a final concentration of 2 μM. […] The four resulting solutions were diluted 4-fold in Opti-MEM without serum or phenol red to generate 5× solutions (5 µM and 0.5 µM tracer +/− 100 μM competing compound). To screen the library, a BioTek MultiFlo FX liquid dispenser was used to dispense 22.5 µL of tracer solution to the top 4 rows and 22.5 µL tracer + competing compound solution to the 4 bottom rows. Plates were briefly mixed on an orbital shaker and incubated for 1.5 h at room temperature. […] Plates were briefly mixed on an orbital shaker and incubated for 15 min to allow complementation.

DRD1 = target: T2, DRD1 (Homo sapiens, UniProt P21728); assay: NanoBRET screen HiBiT-DRD1 in HEK293; type: binding; conditions: DRD1
T2 construct: purchased Promega (in-house HiBiT-GPCR construct library, NanoBRET)
Procedure: as §1, §2

T2 sequence (P21728 whole entry): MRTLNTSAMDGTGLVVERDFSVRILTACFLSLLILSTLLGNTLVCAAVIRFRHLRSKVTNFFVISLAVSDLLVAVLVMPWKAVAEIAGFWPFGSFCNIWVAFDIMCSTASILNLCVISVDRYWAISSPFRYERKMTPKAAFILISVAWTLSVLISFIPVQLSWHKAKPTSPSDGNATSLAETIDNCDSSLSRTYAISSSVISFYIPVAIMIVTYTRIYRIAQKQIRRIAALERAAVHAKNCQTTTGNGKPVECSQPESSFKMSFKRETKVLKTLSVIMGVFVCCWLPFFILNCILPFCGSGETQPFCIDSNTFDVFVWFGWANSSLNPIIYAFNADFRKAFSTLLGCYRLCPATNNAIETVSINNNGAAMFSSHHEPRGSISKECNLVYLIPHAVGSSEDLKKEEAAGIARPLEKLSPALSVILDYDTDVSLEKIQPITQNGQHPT

CCCn1c(=O)c2[nH]c(-c3ccc(OCC(=O)NCCNC(=O)CCOCCNC(=O)c4ccc(CNC(=O)CCc5ccc6n5[B-](F)(F)[N+]5=C(c7ccc[nH]7)C=CC5=C6)cc4)cc3)nc2n(CCC)c1=O [XAC-3-NB590]
NanoBRET Fold Response (ADRA1A; tracer 0.1μM): 1.10
NanoBRET Fold Response (ADRA1A; tracer 1μM): 0.94
NanoBRET Fold Response (DRD1; tracer 0.1μM): 0.90
NanoBRET Fold Response (DRD1; tracer 1μM): 1.11
